Laboratory results published in US20230295201A1 (Gilead Sciences, Inc., priority 2020, published 2023).
Like-named read-outs stand apart in the source and are kept apart here.

Legend:
Assay type in all cases: cell-based
DENV2 replicon = test: DENV-2 Huh-7 Rep EC50 (replicon luminescence); conditions: read-out: DENV-2 Huh-7 Rep EC50
Method in brief: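 EC50 derived from luminescence dose-response, normalised to DMSO-only 0% inhibition wells, after 1.5 h with EnduRen substrate. Compounds were first exposed for 48 h at 37° C to DENV2 replicon Huh-7 cells (5,000/well).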

HCV replicon 2A = test: HCV Rep 2A EC50 (replicon luciferase)
Method: (§1) Compounds were serially diluted in ten steps of 1:3 dilutions in 384-well plates. All serial dilutions were performed in four replicates per compound within the same 384-well plate. […] To each well of a black polystyrene 384-well plate (Greiner Bio-one, Monroe, NC), 90 μL of cell culture medium (without Geneticin) containing 2000 suspended HCV replicon cells was added with a Biotek μFlow workstation. For compound transfer into cell culture plates, 0.4 μL of compound solution from the compound serial dilution plate was transferred to the cell culture plate on a Biomek FX workstation. The DMSO concentration in the final assay wells was 0.44%. The plates were incubated for 3 days at 37° C. with 5% CO2 and 85% humidity. The HCV replicon assay was a multiplex assay, able to assess both cytotoxicity and antireplicon activity from the same well. The CC50 assay was performed first. The media in the 384-well cell culture plate was aspirated, and the wells were washed four times with 100 μL of PBS each, using a Biotek ELX405 plate washer. A volume of 50 μL of a solution containing 400 nM calcein AM (Anaspec, Fremont, CA) in 1×PBS was added to each well of the plate with a Biotek μFlow workstation. The plate was incubated for 30 min at room temperature before the fluorescence signal (excitation 490 nm, emission 520 nm) was measured with a Perkin-Elmer Envision plate reader. The EC50 assay was performed in the same wells as the CC50 assay. The calcein-PBS solution in the 384-well cell culture plate was aspirated with a Biotek ELX405 plate washer. A volume of 20 μL of Dual-Glo luciferase buffer (Promega, Madison, WI) was added to each well of the plate with a Biotek μFlow Workstation. The plate was incubated for 10 min at room temperature. A volume of 20 μL of a solution containing a 1:100 mixture of Dual-Glo Stop & Glo substrate (Promega, Madison, WI) and Dual-Glo Stop & Glo buffer (Promega, Madison, WI) was added to each well of the plate with a Biotek μFlow Workstation. The plate was then incubated at room temperature for 10 min before the luminescence signal was measured with a Perkin-Elmer Envision Plate Reader.

HCV replicon 1B = test: HCV Rep 1B EC50 (replicon luciferase)
Method: as §1

HRV16 = HRV16 HELA EC50 (cytopathic effect in H1-HeLa cells)
Method in brief: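 Read-out is luminescent cell viability (CellTiter-Glo) after 96 h of infection at 33 °C, scaled between uninfected and infected-untreated wells. Before infection with titrated virus, compounds went onto H1-HeLa cells as triplicate 3-fold dilution series.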

RSV strain A2 = test: RSV HEp-2 EC50 (infectious cytopathic cell protection assay); conditions: HEp-2 cells, RSV A2, 4 days, read-out: RSV HEp-2 EC50
Method in brief: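 Percent inhibition of RSV-induced cytopathic effect came from remaining cell viability (CellTiter-Glo luminescence) after 4 days at 37° C. Compounds in 3-fold serial dilutions were exposed to an infectious mix of titered A2 virus and HEp-2 cells at 50,000/ml, with 0% and 100% inhibition control standards.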

RSV A2 = test: RSV NHBE EC50 (RSV A2 antiviral assay in normal human bronchial epithelial cells); conditions: NHBE cells, RSV A2, 4 days, read-out: RSV NHBE EC50
[1] = test system: Dengue serotype 2 New Guinea C (NGC) strain; test: DENV-2 Huh-7 EC50 (qPCR in Huh7 cells)
Method: Huh7 (Human hepatocarcinoma 7) cells were maintained in 10% FCS-containing DMEM complete media. On the day of the assay, cells were trypsinized (0.1% Trypsin-EDTA), washed and infected for 2 hours in serum-free DMEM with Dengue serotype 2 New Guinea C (NGC) strain at MOI=0.1 with gentle agitation at 37° C. After 2 hours, cells were washed with serum-free media and suspended in 10% FCS-containing DMEM (Gibco, supplemented with sodium pyruvate, NEAA, Penicillin-Streptomycin). 10^5 cells were plated in triplicate in 96-well plates with compounds dispensed at graded doses (Hewlett-Packard D300 Digital Dispenser). All wells were normalized to 0.25% DMSO. At 48 hours, cells were washed with 1×PBS and all supernatants removed. Total RNA was extracted using RNEasy 96 plates (Qiagen) and used to generate first-strand cDNA using XLT cDNA 5×Supermix (QuantaBio). cDNA was used as a template in a Taqman qPCR duplex reaction specific to DENV2 viral and GAPDH gene expression. EC50 values were determined using Prism Graphpad software, with normalization to a positive control and no compound negative control wells.

[2] = test system: Dengue 2, New Guinea strain (NGC); test: DENV-2 moDC EC50 (qPCR in human monocyte-derived dendritic cells); conditions: Dengue virus, DENV2, Dendritic cell; moDCs, 48 hours
Method: Human monocyte-derived dendritic cells (moDCs) were derived from CD14+ monocytes (AllCells) cultured in Human Mo-DC Differentiation medium containing GM-CSF and IL-4 (Miltenyi Biotec). On day 7, moDCs were harvested by mechanical disruption, washed and suspended in serum-free RPMI. moDCs were infected with Vero-derived Dengue 2, New Guinea strain (NGC) at a MOI=0.1 for two hours in serum-free RPMI with gentle agitation at 37° C. Cells were washed and resuspended in 10% serum-containing RPMI (Gibco, supplemented with sodium pyruvate, NEAA, Penicillin-Streptomycin). 10^5 cells were plated in triplicate in 96-well plates with compounds dispensed at graded doses (Hewlett-Packard D300 Digital Dispenser). All wells were normalized to 0.25% DMSO. At 48 hours, cells were washed with 1×PBS and all supernatants removed. Total RNA was extracted using RNEasy 96 plates (Qiagen) and used to generate first-strand cDNA using XLT cDNA 5× Supermix (QuantaBio). cDNA was used as a template in a Taqman qPCR duplex reaction specific to DENV2 viral and GAPDH gene expression. EC50 values were determined using Prism Graphpad software, with normalization to a positive control and no compound negative control wells.

[3] = replicon cells, 3 days, read-out: HCV Rep 2A EC50
[4] = replicon cells, 3 days, read-out: HCV Rep 1B EC50
[5] = H1-HeLa cells, 96 h, 33° C.; read-out: HRV16 HELA EC50
[6] = Dengue virus, DENV2, Huh-7, 48 h, Huh-7 replicon cells, 48 hours
[7] = human respiratory syncytial virus, HEp-2, 96 h
[8] = human respiratory syncytial virus, NHBE, 96 h
[9] = Dengue virus, DENV2, Huh-7, 48 h
[10] = 96 h, H1-HeLa cells, 33° C., read-out: HRV16 HELA EC50
[11] = human respiratory syncytial virus, 96 h

| Structure (SMILES) | EC50 (DENV2 replicon; Huh-7 replicon cells, 48 hours) [nM] | EC50 (HRV16; [5]) [nM] | EC50 (RSV strain A2) [nM] | EC50 (RSV A2) [nM] | EC50 ([1]; 48 hours) [nM] | other results |
| --- | --- | --- | --- | --- | --- | --- |
| CC(NP(=O)(OCC1(C#N)OC(c2ccc3c(N)ncnn23)C(O)C1O)Oc1ccccc1)C(=O)OC1CCOC1 (single isomer, unassigned) [Example 69] | > 100000 | 7320 |  |  |  | EC50 (HCV replicon 2A; [3]): 50300 nM; EC50 (HCV replicon 1B; [4]): 25300 nM |
| C[C@H](NP(=O)(OC[C@@]1(C#N)O[C@@H](c2ccc3c(N)ncnn23)[C@H](O)[C@@H]1O)Oc1ccccc1)C(=O)O[C@H]1CCOC1 (single isomer, unassigned) [Example 66] |  |  |  |  |  | EC50 (DENV2 replicon; [6]): > 100000 nM; EC50 (HCV replicon 2A; Hepatitis C virus, 72 h, read-out: HCV Rep 2A EC50, replicon cells, 3 days): 21800 nM; EC50 (HCV replicon 1B; Hepatitis C virus, 72 h, read-out: HCV Rep 1B EC50, replicon cells, 3 days): 14900 nM |
| CC(C)(C)C(=O)OCCNP(=O)(OC[C@@]1(C#N)O[C@@H](c2ccc3c(N)ncnn23)[C@H](O)[C@@H]1O)Oc1ccccc1 (mixture of isomers) [Example 11, 2-(((((2R,3S,4R,5S)-5-(4-aminopyrrolo[2,1-f][1,2,4]triazin-7-yl)-2-cyano-3,4-dihydroxytetrahydrofuran-2-yl)methoxy)(phenoxy)phosphoryl)amino)ethyl pivalate] |  |  |  |  |  | EC50 (DENV2 replicon; [6]): > 50000 nM; EC50 (RSV strain A2; [7]): 269 nM; EC50 (RSV A2; [8]): 54 nM; EC50 [1, 9]: 3500 nM; EC50 (HRV16; [10]): 1200 nM |
| CC(NP(=O)(OCC1(C#N)OC(c2ccc3c(N)ncnn23)C(O)C1O)Oc1ccccc1)C(=O)OCC1CCC(C(F)(F)F)CC1 (single isomer, unassigned) [Example 28] | 29600 | 590 | 238 | 53 | 2160 |  |
| CCC(CC)COC(=O)[C@H](C)NP(=O)(N[C@@H](C)C(=O)OCC(CC)CC)OC[C@@]1(C#N)O[C@@H](c2ccc3c(N)ncnn23)[C@H](O)[C@@H]1O [Example 7] |  | 5940 |  |  |  | EC50 (DENV2 replicon; [9]): 32900 nM; EC50 (RSV strain A2; [11]): 1860 nM; EC50 (RSV A2; [11]): 265 nM; EC50 [2]: > 25000 nM |
| CCC(CC)COC(=O)[C@H](C)NP(=O)(N[C@@H](C)C(=O)OC1CCCCC1)OC[C@@]1(C#N)O[C@@H](c2ccc3c(N)ncnn23)[C@H](O)[C@@H]1O (single isomer, unassigned) [Example 227] | 39400 | 4940 | 614 | 126 |  | EC50 (HCV replicon 2A; [3]): 4760 nM; EC50 (HCV replicon 1B; [4]): 10200 nM |
| C[C@H](NP(=O)(OC[C@@]1(C#N)O[C@@H](c2ccc3c(N)ncnn23)[C@H](O)[C@@H]1O)Oc1ccccc1)C(=O)OCC1CC1 (single isomer, unassigned) [Example 9] | > 50000 | 324 | 1010 | 97 | 1460 |  |
| CC(NP(=O)(OCC1(C#N)OC(c2ccc3c(N)ncnn23)C(O)C1O)Oc1ccccc1)C(=O)OC1CCOC1 (single isomer, unassigned) [Example 70] | > 100000 | 5230 |  |  |  | EC50 (HCV replicon 2A; [3]): 32700 nM; EC50 (HCV replicon 1B; [4]): 9430 nM |
| CC(NP(=O)(OCC1(C#N)OC(c2ccc3c(N)ncnn23)C(O)C1O)Oc1ccccc1)C(=O)OCC1CCC(C(F)(F)F)CC1 (single isomer, unassigned) [Example 27] | 82200 | 3160 | 1300 | 18 | 5680 |  |
| C[C@H](NP(=O)(OC[C@@]1(C#N)O[C@@H](c2ccc3c(N)ncnn23)[C@H](O)[C@@H]1O)Oc1ccccc1)C(=O)OCC1CC1 (single isomer, unassigned) [Example 10] | 17900 | 583 | 191 | 421 | 2790 |  |
| COCCCOC(=O)[C@H](C)NP(=O)(OC[C@@]1(C#N)O[C@@H](c2ccc3c(N)ncnn23)[C@H](O)[C@@H]1O)Oc1ccccc1 (single isomer, unassigned) [Example 60] | 41300 |  | 583 | 361 | 6820 | EC50 (HCV replicon 2A; [3]): 10800 nM; EC50 (HCV replicon 1B; [4]): 6080 nM |
| C[C@H](NP(=O)(OC[C@@]1(C#N)O[C@@H](c2ccc3c(N)ncnn23)[C@H](O)[C@@H]1O)Oc1ccccc1)C(=O)OCc1ccccc1 (stereo partly drawn) [Example 37, benzyl ((((2R,3S,4R,5S)-5-(4-aminopyrrolo[2,1-f][1,2,4]triazin-7-yl)-2-cyano-3,4-dihydroxytetrahydrofuran-2-yl)methoxy) (phenoxy)phosphoryl)-L-alaninate] |  |  |  |  |  | EC50 (DENV2 replicon; [6]): 6700 nM; EC50 (RSV strain A2; [7]): 136 nM; EC50 (RSV A2; [8]): 129 nM; EC50 [1, 9]: 1510 nM; EC50 (HRV16; [10]): 329 nM |
| C[C@H](N[P@@](=O)(OC[C@@]1(C#N)O[C@@H](c2ccc3c(N)ncnn23)[C@H](O)[C@@H]1O)Oc1ccccc1)C(=O)OCC1CCC1 [Example 119] | 31100 | 247 | 539 | 120 | 4280 |  |
| CCCCCCCCOC(=O)[C@H](C)NP(=O)(OC[C@@]1(C#N)O[C@@H](c2ccc3c(N)ncnn23)[C@H](O)[C@@H]1O)Oc1ccccc1 (stereo partly drawn) [Example 188, octyl ((((2R,3S,4R,5S)-5-(4-aminopyrrolo[2,1-f][1,2,4]triazin-7-yl)-2-cyano-3,4-dihydroxytetrahydrofuran-2-yl)methoxy)(phenoxy)phosphoryl)-L-alaninate] |  |  |  |  |  | EC50 (DENV2 replicon; [6]): 21400 nM; EC50 (RSV strain A2; [7]): 186 nM; EC50 (RSV A2; [8]): 38 nM; EC50 [1, 9]: 3020 nM; EC50 (HRV16; [10]): 429 nM |
